Patent US7202374B2, “Fullerene derivatives and their metal complexes” (Mitsubishi Chemical Corporation, priority 2002, dated 2007)

Assays:
[1] = Solubility in n-hexane (stir 1 hour, centrifuge, weigh dried residue of supernatant); type: physicochemical; settings: for solubility in n-hexane: room temperature (25° C.), stirred 1 hour
Description: The solubility in n-hexane at 25° C. is determined as follows. In some detail, a predetermined amount of n-hexane is added to a fullerene derivative. The mixture is then stirred at 25° C. for 1 hour. The resulting slurry is then subjected to centrifugal separation. The solution is then decanted. The solvent is then distilled off the resulting supernatant liquid. The resulting precipitate is dried in vacuo, and then measured for weight. Thus, the solubility in n-hexane at 25° C. is calculated.
To 100 mg of C60[CH2Si(CH3)3]5H was added 0.5 ml of n-hexane. The mixture was then stirred at 25° C. for 1 hour. The slurry was purified, and then subjected to centrifugal separation by a centrifugal separator. The resulting supernatant liquid was withdrawn. The solvent was then distilled off. The residue was then dried in vacuo. The weight of the residue was then measured. The result was 32.5 mg.

[2] = Stability of the solid at room temperature in the air; type: physicochemical; settings: solid (brown powder)

| Substance | solubility in n-hexane [1] | solubility in n-hexane measured at 50° C. ([1]; 50° C., otherwise same conditions as in Example 1) | stability when solid [2] |
| --- | --- | --- | --- |
| (C6H5)5C60H | less than 0.001 mg/ml |  |  |
| (CH3)5C60H | less than 0.001 mg/ml |  |  |
| C60[CH2Si(CH3)3]2 | about 0.05 mg/ml | about 0.2 mg/ml |  |
| C60[CH2Si(CH3)3]5H | 65 mg/mL |  | stable at room temperature in the air |
| C60{CH2Si(CH3)3}3H | 11 mg/mL |  | stable at room temperature in the air |
| Rh[C60{CH2Si(CH3)3}3](1,5-cyclooctadiene) | 5.0 mg/mL |  |  |
